In patent US10351847B2, “Identification and display of peptide ligands” (OXFORD UNIVERSITY INNOVATION LIMITED, priority 2013, dated 2019):
“Also recorded” adds a separate entry of the source. Read-outs that look alike come from different tables or passages of the source. Ends that are not written are not given here. GS linker = not defined here

How the values were obtained:
HIV-1 JRFL gp120 = assay: ELISA for binding between predicted peptides and gp120; details: compared to negative control HA2 (hemagglutinin-binding peptide)
purified gp120 = assay: Surface plasmon resonance (BIAcore) KD of peptides to gp120; type: binding, HIV-1
Description: Immobilisation of purified gp120 protein (1 mg/ml) and purified HLA-A2 heavy chain (reference control, 1 mg/ml) onto the surface of individual flow-cells (Fc1 and Fc2 respectively) of CM5 sensor chip (GE Healthcare) was performed under conditions of 20 μl/min flow rate and 25° C., with HBS-EP buffer (0.01 M HEPES pH 7.4, 0.15 M NaCl, 0.005% v/v Surfactant P20; GE Healthcare) as the running buffer. After initiating the system, 100 μl 0.05M solution of EDC [1-ethyl-3-(3-dimethylaminopropyl) carbodiimide]/NHS (N-Hydroxysuccinimide) at 1:1 ratio was injected to activate the dextran matrix of the sensor chip surface. After immobilisation, 150 μl of 1M ethanolamine hydrochloride was injected to deactivate the unreacted carboxylmethyl groups on the dextran matrix. Finally, 30 μl of Glycine pH2.5 was injected to remove any non-covalently bound proteins.
The affinity analyses of the interaction between 9-amino-acid predicted peptides and purified gp120 were performed using the BIAcore T200 (GE Healthcare), under conditions of 10 μl/min flow rate and 25° C. and using HBS-EP buffer (0.01 M HEPES pH 7.4, 0.15 M NaCl, 0.005% v/v Surfactant P20; GE Healthcare) as the running buffer. Prior to experiment, the 9-amino-acid peptides were diluted to 1 mg/ml with HBS-EP buffer. A 2-fold serial dilution of totally 8 concentrations was used to pass through the […]. The data were analysed using Microcal Origin version 7.5 (Microcal Software Limited).
In order to obtain quantitative measurements of binding reactions between predicted peptides and gp120, surface plasmon resonance (BIAcore) was used to measure the equilibrium dissociation constant KD of the predicted peptides and gp120. […] Since the KD to gp120 is relative to different analytes, purified protein HLA-A*0201 heavy chain was used as a reference control to measure the relative binding affinity of peptides to gp120. Purified gp120 and HLA-A*0201 were immobilised on chips, and the peptides were passed through both flow cells at a constant rate of 10 μl/min. […] The BIcore experiment acted as a second confirmation that the randomised peptide library had successfully captured peptides which bind to gp120 in a single round of selection, and that the sequence information coding the binding peptides was correctly preserved and sequenced.

[1] = test system: HIV-1 (HIV BAL, IIIB, clade C)
HIV-1 BaL = assay: HIV-1 inhibition assay (intracellular p24 in CD4+ cells of PBMC); details: for inhibition of HIV-1 BaL infection: without streptavidin conjugation
HIV-1 IIIB = assay: as above; type: cell-based; details: CXCR4 tropic virus
[2] = test system: JRFL gp120 / recombinant CCR5; type: binding, HIV-1; details: 125 ng peptide

Compound | binding to gp120 on ELISA (absorbance) (HIV-1 JRFL gp120) | affinity to gp120 (ranking) (purified gp120) | cross clade HIV-1 inhibitory activity [1] | HIV-1 inhibition (in words) [1] | further results
LLALSAYMV [GP11] | significantly higher binding; also recorded: higher absorbance | highest affinity | exhibited cross clade HIV-1 inhibitory activity | – | –
CC(C)C[C@H](NC(=O)[C@H](CC(C)C)NC(=O)[C@H](CC(N)=O)NC(=O)[C@H](CC(C)C)NC(=O)[C@H](CCCNC(=N)N)NC(=O)[C@H](CCCNC(=N)N)NC(=O)[C@H](CS)NC(=O)[C@H](Cc1c[nH]c2ccccc12)NC(=O)[C@@H](N)CC(C)C)C(=O)NCC(=O)NCC(=O)NCC(=O)NCC(=O)NCC(=O)NCC(=O)N[C@@H](CO)C(=O)NCC(=O)NCC(=O)N[C@@H](CO)C(=O)NCC(=O)N[C@@H](CCCCNC(=O)CCCC[C@@H]1SC[C@@H]2NC(=O)N[C@@H]21)C(=O)O [GP16] | significantly higher binding; also recorded: higher absorbance; also recorded: highest binding affinity | highest affinity | exhibited cross clade HIV-1 inhibitory activity | greatest inhibition | reduction in absorbance of peptide binding to gp120 (gp120; gp120 blocked with any of the three antibodies (V3, VRC01, F105)): no reduction; inhibition of HIV-1 BaL infection (HIV-1 BaL; 50 μM): less than 1%; inhibition of HIV-1 BaL infection (HIV-1 BaL; 100 μM): less than 1%; inhibition of HIV-1 BaL infection (HIV-1 BaL; 250 μM): 50%
RRRNVPLIL (RRRNVPLIL-{GS linker-K(biotin)}; reading uncertain) [GP2] | significantly higher binding; also recorded: higher absorbance | – | – | – | –
enfuvirtide | – | – | – | – | viral inhibition ([1]; positive control, 50 μM): 91.1%
SYSFCPRRQ (also: GS linker and biotinylated lysine, end not given here) [GP3] | significantly higher binding; also recorded: higher absorbance | highest affinity | exhibited cross clade HIV-1 inhibitory activity | greatest inhibition | inhibition of replication (HIV-1 IIIB): no inhibition; reduction in absorbance (recombinant CCR5 binding to gp120) [2]: 65.8%; reduction in absorbance of peptide binding to gp120 (gp120; gp120 pre-blocked with V3 antibody): significant reduction; inhibition of HIV-1 BaL infection (HIV-1 BaL; 50 μM): no inhibitory effect; inhibition of HIV-1 BaL infection (HIV-1 BaL; 100 μM): 34.5%; inhibition of HIV-1 BaL infection (HIV-1 BaL; 250 μM): 54.7%; inhibition of replication (HIV-1 BaL; CCR5 tropic virus): exhibited inhibition
SSCSVRSSCRLYYSC [GP21] | did not show any binding | – | – | did not show any HIV-1 inhibition | –
LVLLSSASS [GP5] | – | highest affinity | – | – | –
